In brackets after ≈: the same amount, converted by molar mass.
What was measured:
[1] = tested on: Neutrophil; test: Inhibition of FMLP/CB-induced superoxide anion generation in human neutrophils at 10 ug/ml by ferricytochrome c reduction method; format: functional
[2] = tested on: Neutrophil; test: Inhibition of FMLP/CB-induced elastase release in human neutrophils after 5 mins by spectrophotometry; format: functional, cell-based
[3] = tested on: Neutrophil; test: Inhibition of FMLP/CB-induced elastase release in human neutrophils at 10 ug/ml after 5 mins by spectrophotometry; format: functional
[4] = Cytotoxicity against human neutrophils at 10 ug/ml after 15 mins by LDH release assay; format: cell-based; details: neutrophil, 0.25 h
[5] = tested on: Neutrophil; test: Inhibition of FMLP/CB-induced superoxide anion generation in human neutrophils by ferricytochrome c reduction method; format: functional, cell-based
[6] = tested on: RAW264.7; test: Inhibition of NO production in LPS/IFN-gamma activated mouse RAW264.7 cells after 24 hrs by Griess assay; format: functional, cell-based
[7] = Mus musculus, RAW264.7, 24 h, read-out: IC50

Row | SMILES | inhibition at 10 µg/mL [1] | IC50 [2] | inhibition at 10 µg/mL [3] | Activity [4] | IC50 [5] | IC50 ([6]; raw264.7) | IC50 [6, 7]
1 | COC(=O)[C@]1(C)CCC[C@@]2(C)[C@@H]3CC[C@@H]4C[C@@]3(CC[C@@H]21)C[C@@H]4CO | 90.7% | > 10 µg/mL | 27.7% | Toxic | 5.22 µg/mL (≈ 15.6 µM) |  | 
2 | CC1=CC(=O)CC(C)(C)[C@@]1(O)/C=C/C(C)O (stereo partly drawn) | 3.57% | > 10 µg/mL | 3.42% |  | > 10 µg/mL | Not Active | 
3 | CC1(C)C[C@H]2[C@H]1CC[C@@]1(C)C[C@]2(O)CC[C@@H]1O | 10.2% | > 10 µg/mL | 5.93% |  | > 10 µg/mL | Not Active | 
4 | C=C1C(=O)O[C@@H]2C[C@]3(C)[C@@H](CCC(C)=O)[C@@H]3C[C@H]12 | 41.2% | > 10 µg/mL | 11.2% |  | > 10 µg/mL |  | 6.4 µM
5 | C=C1C(=O)O[C@@H]2C[C@]3(C)[C@@H](CCC(C)O)[C@@H]3C[C@H]12 (stereo partly drawn) | 11.6% | > 10 µg/mL | 39% |  | > 10 µg/mL |  | 18.9 µM
6 | C=C(C)C(=O)O[C@H]1[C@H]2C(=C)C(=O)O[C@@H]2/C=C(\CO)CC/C=C(/C=O)[C@H]1O | 9.01% | > 10 µg/mL | 20.8% |  | > 10 µg/mL | Not Active | 
7 | C=C(C)C(=O)O[C@H]1[C@H]2C(=C)C(=O)O[C@@H]2/C=C(\CO)CC/C=C(/C=O)[C@H]1OCC | 72.4% | > 10 µg/mL | 22.3% | Non-toxic | 6.46 µg/mL (≈ 16.5 µM) |  | 6.8 µM
8 | CC1(C)[C@H](O)CC[C@@]2(C)[C@@H]3CC[C@](C)(C(O)CO)C=C3CC[C@H]12 (stereo partly drawn) | 35.8% | > 10 µg/mL | 21.9% |  | > 10 µg/mL |  | 
9 | C[C@]1(CO)[C@H]2CCC3=C[C@@](C)(C(O)CO)CC[C@H]3[C@]2(C)CC[C@H]1O (stereo partly drawn) | 17.8% | > 10 µg/mL | -0.74% |  | > 10 µg/mL |  | 
10 | C[C@@]1(CO)C[C@@H](O)C[C@@]2(C)[C@@H]3CC[C@](C)(C(O)CO)C=C3CC[C@H]12 (stereo partly drawn) | 7.88% | > 10 µg/mL | 6.78% |  | > 10 µg/mL |  | 
11 | C[C@@]1(CO)CC(=O)C[C@@]2(C)[C@@H]3CC[C@](C)(C(O)CO)C=C3CC[C@H]12 (stereo partly drawn) | 10.2% | > 10 µg/mL | -0.75% |  | > 10 µg/mL |  | 
12 | C[C@@]12C[C@H](O)C[C@@](C)(C(=O)O)[C@H]1CCC1=C[C@@](C)(C(O)CO)CC[C@H]12 (stereo partly drawn) | 5.18% | > 10 µg/mL | 7.65% |  | > 10 µg/mL |  | 
13 | CC1(C)[C@H]2CCC3=C[C@@](C)(C(O)CO)CC[C@H]3[C@]2(C)CC[C@H]1O[C@@H]1O[C@H](CO)[C@@H](O)[C@H](O)[C@H]1O (stereo partly drawn) | 5.86% | > 10 µg/mL | 5.93% |  | > 10 µg/mL |  | 
14 | CC(=O)OCC(O)[C@]1(C)C=C2CC[C@@H]3C(C)(C)[C@H](O[C@@H]4O[C@H](CO)[C@@H](O)[C@H](O)[C@H]4O)CC[C@@]3(C)[C@@H]2CC1 (stereo partly drawn) | 8.87% | > 10 µg/mL | 4.44% |  | > 10 µg/mL |  | 
15 | CC1(C)OCC([C@]2(C)C=C3CC[C@@H]4[C@](C)(CO)C[C@@H](O)C[C@@]4(C)[C@@H]3CC2)O1 (stereo partly drawn) | 38.4% | > 10 µg/mL | 21.8% |  | > 10 µg/mL |  | 
16 | C[C@@]12CCC[C@@](C)(C(=O)O)[C@H]1CC[C@]13C[C@H](CO)[C@@H](CC[C@H]12)C3 | 89.5% | > 10 µg/mL | 45.9% | Non-toxic | 3.72 µg/mL (≈ 11.6 µM) |  | 
17 | C[C@@]12CCC[C@@](CO)(C(=O)O)[C@H]1CC[C@]13C[C@@H](CO)[C@@H](CC[C@H]12)C3 | 7.81% | > 10 µg/mL | 15.7% |  | > 10 µg/mL |  | 
18 | C[C@@]12CCC[C@@](C)(C(=O)O)[C@H]1CC[C@@]13C[C@H](CC[C@H]12)[C@H](C(=O)O)C3 | 69.6% | > 10 µg/mL | 31.5% | Non-toxic | 5.59 µg/mL (≈ 16.7 µM) |  | 
19 | CC(C)C(=O)OC[C@@H]1C[C@@]23CC[C@@H]4[C@](CO)(C(=O)O)CCC[C@@]4(C)[C@@H]2CC[C@H]1C3 | 67% | 4.73 µg/mL (≈ 11.6 µM) | 83.2% | Non-toxic | 6.74 µg/mL (≈ 16.6 µM) |  | 
20 | CC(=O)OC[C@@]1(C(=O)O)CCC[C@@]2(C)[C@@H]3CC[C@H]4C[C@@]3(CC[C@H]12)C[C@H]4COC(=O)C(C)C | 35.2% | 3.64 µg/mL (≈ 8.11 µM) | 77.8% | Non-toxic | > 10 µg/mL |  | 
21 | CC(=O)OC[C@@]1(C(=O)O)CCC[C@@]2(C)[C@@H]3CC[C@H]4C[C@@]3(CC[C@H]12)C[C@@]4(O)CO | 32.1% | > 10 µg/mL | 37% |  | > 10 µg/mL |  | 
22 | CC(=O)OC[C@@]1(C(=O)O)CCC[C@@]2(C)[C@@H]3CC[C@H]4C[C@@]3(CC[C@H]12)C[C@@]4(O)COC(=O)C(C)C | 46.7% | 6.82 µg/mL (≈ 14.7 µM) | 60.4% | Non-toxic | > 10 µg/mL |  | 
23 | C[C@@]12CCC[C@@](C)(C(=O)O)[C@H]1CC[C@@]13C[C@H](CC[C@H]12)[C@@](O)(CO)C3 | 89.2% | 4.34 µg/mL (≈ 12.9 µM) | 70.8% | Non-toxic | 3.63 µg/mL (≈ 10.8 µM) |  | 
24 | O=c1cc(N2CCOCC2)oc2c(-c3ccccc3)cccc12 [LY-294002] |  | 0.92 µg/mL (≈ 2.99 µM) |  |  | 0.4 µg/mL (≈ 1.3 µM) |  | 
25 | C=C1C(=O)O[C@H]2C[C@@H](C)[C@@H]3CC[C@H](O)[C@@]3(C)C[C@H]12 [PSEUDOGUAIANOLIDE] | 17% | > 10 µg/mL | 46.9% |  | > 10 µg/mL |  | 14.9 µM
